From patent US8067582B2 (Bristol-Myers Squibb Company, priority 2007, dated 2011)
Where two headings read alike, the source gives them in different places.

What was measured:
[1] = tested on: immature castrated male rats; assay: Immature Rat Prostate Weight (IRPW) Assay; assay type: in vivo, rat (Sprague-Dawley); conditions: Rattus norvegicus, 96 h, read-out: IRPW SV/FB (% control)
[2] = target: T1, androgen receptor (AR) (Homo sapiens, UniProt P10275); assay: MDA-MB-453 Androgen Receptor Transactivation Assay (PSA-Luc reporter, 3 nM DHT); assay type: cell-based; conditions: MDA-MB-453 cells, antagonism in presence of 3 nM DHT, 48 hour incubation
T1 sequence (P10275 1-920): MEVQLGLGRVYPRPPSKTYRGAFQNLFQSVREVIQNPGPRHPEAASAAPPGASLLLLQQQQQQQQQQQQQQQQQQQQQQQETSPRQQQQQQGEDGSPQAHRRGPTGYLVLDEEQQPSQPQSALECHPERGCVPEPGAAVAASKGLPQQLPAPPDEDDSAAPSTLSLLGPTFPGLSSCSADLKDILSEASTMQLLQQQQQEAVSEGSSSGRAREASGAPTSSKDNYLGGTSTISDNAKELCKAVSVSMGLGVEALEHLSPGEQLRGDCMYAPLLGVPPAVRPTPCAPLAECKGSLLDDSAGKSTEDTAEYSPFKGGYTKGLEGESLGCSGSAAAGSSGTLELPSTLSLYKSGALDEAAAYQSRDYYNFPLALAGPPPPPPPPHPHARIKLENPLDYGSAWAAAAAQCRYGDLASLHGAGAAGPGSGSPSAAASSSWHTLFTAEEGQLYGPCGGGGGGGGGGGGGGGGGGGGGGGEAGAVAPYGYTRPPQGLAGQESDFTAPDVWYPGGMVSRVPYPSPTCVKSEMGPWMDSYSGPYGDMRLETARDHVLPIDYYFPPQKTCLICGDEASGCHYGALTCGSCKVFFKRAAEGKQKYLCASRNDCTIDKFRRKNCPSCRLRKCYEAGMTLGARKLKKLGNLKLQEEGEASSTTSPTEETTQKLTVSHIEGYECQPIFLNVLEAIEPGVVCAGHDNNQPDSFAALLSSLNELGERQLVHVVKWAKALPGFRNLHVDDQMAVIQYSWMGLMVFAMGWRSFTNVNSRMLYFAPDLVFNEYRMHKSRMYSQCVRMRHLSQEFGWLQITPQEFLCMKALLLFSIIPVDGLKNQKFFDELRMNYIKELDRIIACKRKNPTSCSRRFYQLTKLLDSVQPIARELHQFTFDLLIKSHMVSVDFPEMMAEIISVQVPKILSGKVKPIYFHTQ

[3] = target: endogenous wild type AR; conditions: read-out: Kd for [3H]-DHT; MDA-MB-453 cells, saturation analysis, Scatchard
Description: For the whole cell binding assay, human breast adenocarcinoma MDA-MB-453 cells (American Type Culture Collection, Rockville, Md., ATCC #: HTB-131), expressing a functional endogenous wild type AR, are grown to near confluency in T-225 tissue culture flasks containing Dulbecco's Modified Eagle Medium (DMEM) (Mediatech CAT #45000-668) supplemented with 10% fetal bovine serum (FBS) (Invitrogen/GIBCO Life Science). In order to remove any endogenous ligand that might be complexed with the receptor in the cells, the tissue culture media is removed and the cells are incubated overnight at 37° C. in serum-free DMEM. […] After the remaining media is removed, cells are washed three times with PBS and harvested onto UniFilter GF/B plates (PerkinElmer).
Two replicates are used for each sample. After 90 minutes at room temperature, cells are harvested by filtering through a GF/B filter plate (PerkinElmer) followed by washing with ice-cold 1×PBS (without calcium and magnesium) to remove unbound label. […] After correcting for non-specific binding, IC50 values are determined. The IC50 value is defined as the concentration of competing ligand needed to reduce specific binding by 50%. […] The Ki values are determined by application of the Cheng-Prusoff equation to the IC50 values where: […]

[4] = immature castrated rats, 3 mpk PO QD × 4 days

Compound | response vs control in vivo at 3 mg/kg [1, 4] | IC50 ([2]; read-out: IC50) | response vs control in vivo at 3 mg/kg ([1]; po) | IC50 [2] | further results
Cc1cc(N2C(=O)[C@H]3[C@H]4[C@@H]2OCC[C@@]42O[C@]3(C)C[C@@H]2O)ccc1C#N [Example 122, 4-((1R,2S,4R,5S,8S,12R)-2-hydroxy-4-methyl-6-oxo-9,13-dioxa-7-azatetracyclo[6.3.1.1^1,4.0^5,12]tridec-7-yl)-2-methylbenzonitrile] | 90% | 1710 nM |  |  | 
C[C@@]12C[C@H](O)[C@]3(CCO[C@H]4[C@@H]3[C@@H]1C(=O)N4c1ccc(Cl)c(C#N)c1)O2 [Example 120, 2-Chloro-5-((1R,2S,4R,5S,8S,12R)-2-hydroxy-4-methyl-6-oxo-9,13-dioxa-7-azatetracyclo[6.3.1.1^1,4.0^5,12]tridec-7-yl)benzonitrile] | 80% | 1650 nM |  |  | 
C[C@@]12C[C@H](O)[C@]3(CCO[C@H]4[C@@H]3[C@@H]1C(=O)N4c1ccc(C#N)c(Cl)c1)O2 [Example 119, 2-Chloro-4-((1R,2S,4R,5S,8S,12R)-2-hydroxy-4-methyl-6-oxo-9,13-dioxa-7-azatetracyclo[6.3.1.1^1,4.0^5,12]tridec-7-yl)benzonitrile] |  |  | 39% | 183 nM | 
C[C@]12CCC(=O)C[C@@H]1CC[C@@H]1[C@@H]2CC[C@]2(C)[C@@H](O)CC[C@@H]12 [[^3H]-DHT, tritiated dihydrotestosterone] |  |  |  |  | Kd [3]: 0.4 nM
CCS(=O)(=O)N[C@H]1C[C@@]2(C)O[C@@]13CCO[C@H]1[C@@H]3[C@@H]2C(=O)N1c1ccc(C#N)c(OC(F)(F)F)c1 [Example 188, N-((1R,2S,4R,5S,8S,12R)-7-(4-Cyano-3-(trifluoromethoxy)phenyl)-4-methyl-6-oxo-9,13-dioxa-7-azatetracyclo[6.3.1.1^1,4.0^5,12]tridec-2-yl)ethanesulfonamide] | 33% | 383 nM |  |  | 
COC(=O)N[C@@H]1C[C@@]23CCO[C@H]4[C@@H]2[C@H](C(=O)N4c2cc(Cl)c(C#N)c(Cl)c2)[C@]1(C)O3 [Example 208, Methyl ((1R,3R,4S,5S,8S,12R)-7-(3,5-dichloro-4-cyanophenyl)-4-methyl-6-oxo-9,13-dioxa-7-azatetracyclo[6.3.1.1^1,4.0^5,12]tridec-3-yl)carbamate] |  |  | 37% | 118 nM | 
COC(=O)N[C@@H]1C[C@@]23CCO[C@H]4[C@@H]2[C@H](C(=O)N4c2ccc(C#N)c(C(F)(F)F)c2)[C@]1(C)O3 [Example 207, Methyl ((1R,3R,4S,5S,8S,12R)-7-(4-cyano-3-(trifluoromethyl)phenyl)-4-methyl-6-oxo-9,13-dioxa-7-azatetracyclo[6.3.1.1^1,4.0^5,12]tridec-3-yl)carbamate] |  |  | 37% | 54 nM | 
C[C@@]12C[C@H](NS(=O)(=O)CC(F)(F)F)[C@]3(CCO[C@H]4[C@@H]3[C@@H]1C(=O)N4c1ccc(C#N)c(Cl)c1)O2 [Example 185, N-((1R,2S,4R,5S,8S,12R)-7-(3-Chloro-4-cyanophenyl)-4-methyl-6-oxo-9,13-dioxa-7-azatetracyclo[6.3.1.1^1,4.0^5,12]tridec-2-yl)-2,2,2-trifluoroethanesulfonamide] |  |  | 31% | 147 nM | 
CCS(=O)(=O)N[C@H]1C[C@@]2(C)O[C@@]13CCO[C@H]1[C@@H]3[C@@H]2C(=O)N1c1ccc(C#N)c(Br)c1 [Example 179, N-((1R,2S,4R,5S,8S,12R)-7-(3-Bromo-4-cyanophenyl)-4-methyl-6-oxo-9,13-dioxa-7-azatetracyclo[6.3.1.1^1,4.0^5,12]tridec-2-yl)ethanesulfonamide] | 31% | 141 nM |  |  | 
C[C@]12O[C@@]3(CCO[C@H]4[C@@H]3[C@@H]1C(=O)N4c1ccc(C#N)c(C(F)(F)F)c1)C[C@H]2O (single isomer, unassigned) [Example 1] |  |  |  | 177 nM | response vs control in vivo at 5 mg/kg ([1]; po): 54%
CO/N=C1\C[C@@]2(C)O[C@@]13CCO[C@H]1[C@@H]3[C@@H]2C(=O)N1c1ccc(C#N)c(C(F)(F)F)c1 [Example 30, 4-((1R,2E,4R,5S,8S,12R)-2-(methoxyimino)-4-methyl-6-oxo-9,13-dioxa-7-azatetracyclo[6.3.1.1^1,4.0^5,12]tridec-7-yl)-2-(trifluoromethyl)benzonitrile] |  |  | 37% | 31 nM | 
